These results are taken from US20260022142A1, “MACROCYCLIC IMMUNOMODULATORS” (Bristol-Myers Squibb Company, priority 2022, published 2026).

As usually defined, the IC50 is the concentration at which inhibition is half-maximal.

Bridge positions count the residues as written; N and C are the ends. Square brackets hold non-standard residues; d marks the D form. Peptide text beside a SMILES is read from it. * marks the point of attachment. ξ: configuration not given here. Phe(4-CONH2) = NC(=O)c1ccc(C[C@H](N)C(=O)O)cc1; Phe(4-COOH) = N[C@@H](Cc1ccc(C(=O)O)cc1)C(=O)O; Phe(2-CF3) = N[C@@H](Cc1ccccc1C(F)(F)F)C(=O)O; Bip = N[C@@H](Cc1ccc(-c2ccccc2)cc1)C(=O)O; Phe(4-NH2) = Nc1ccc(C[C@H](N)C(=O)O)cc1; Phe(3-Me) = Cc1cccc(C[C@H](N)C(=O)O)c1; Phe(4-F) = N[C@@H](Cc1ccc(F)cc1)C(=O)O; Val(3-OH) = CC(C)(O)[C@H](N)C(=O)O; hArg = N=C(N)NCCCC[C@H](N)C(=O)O; Cha = N[C@@H](CC1CCCCC1)C(=O)O; Cit = NC(=O)NCCC[C@H](N)C(=O)O; dCha = N[C@H](CC1CCCCC1)C(=O)O; Thr(3ξ) = CC(O)[C@H](N)C(=O)O; 12Ado = NCCCCCCCCCCCC(=O)O; Carboxymethyl = O=C(O)C*; Orn = NCCC[C@H](N)C(=O)O; Aun = NCCCCCCCCCCC(=O)O; Dab = NCC[C@H](N)C(=O)O; Dap = NC[C@H](N)C(=O)O; AEEA = NCCOCCOCC(=O)O; ξC = NC(CS)C(=O)O

The target in this test is T1, PD-1/PD-L1 interaction (PE-labeled human PD-L1-Ig binding to Jurkat cell line over-expressing human PD-1) (Homo sapiens, UniProt Q15116).
T1 construct: expressed in transfected cells; host or cells: Jurkat
T1 sequence (Q15116 25-288): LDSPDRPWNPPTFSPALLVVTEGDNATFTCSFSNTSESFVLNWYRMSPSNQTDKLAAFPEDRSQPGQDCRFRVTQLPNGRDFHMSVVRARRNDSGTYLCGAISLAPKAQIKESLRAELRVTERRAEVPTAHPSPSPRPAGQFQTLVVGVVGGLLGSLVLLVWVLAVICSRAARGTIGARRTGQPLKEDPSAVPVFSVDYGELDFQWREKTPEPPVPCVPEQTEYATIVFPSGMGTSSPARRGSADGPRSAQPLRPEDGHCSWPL
The test is described as follows: Jurkat-PD-1 Cell Binding High-Content Screening Assay (CBA). It counts as cell-based. To be noted: Jurkat cell line over-expressing human PD-1; PE-labeled PD-L1-Ig 20 nM final; read-out: Jurkat hPD1-PDL1 IC50. Summed up: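 Human PD-L1-Ig carrying a covalent PE label on its Ig tag serves as the probe, applied at 20 nM final to compound-treated (2 h, 37° C) Jurkat-hPD-1 cells in medium with 10% fetal calf serum. After one hour, fixation and nuclear staining precede high-content image analysis.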
As for `Cc1cccc(C[C@@H]2NC(=O)[C@H](CC(=O)O)NC(=O)[C@H](Cc3ccc(OCC(=O)O)cc3)NC(=O)[C@H](Cc3ccc(F)cc3)NC(=O)CSC[C@@H](C(=O)N[C@@H](CCN)C(=O)NCCOCCOCC(=O)NCCOCCOCC(=O)NCCCCCCCCCCC(=O)O)NC(=O)[C@H](CCC(=O)O)NC(=O)[C@H](C(C)(C)O)NC(=O)[C@H](CC3CCCCC3)NC(=O)[C@H](CCN)NC(=O)[C@@H](CC(C)C)NC(=O)[C@H](CCCN)NC(=O)[C@H](Cc3ccc(C(=O)O)cc3)NC(=O)[C@H](Cc3ccc(-c4ccccc4)cc3)NC(=O)[C@H](Cc3ccc(C(=O)O)cc3)NC2=O)c1` [Compound 3768] ({CH2CO}-[Phe(4-F)]Y(Carboxymethyl)D[Phe(3-Me)][Phe(4-COOH)][Bip][Phe(4-COOH)][Orn][dL][Dab][Cha][Val(3-OH)]EC[Dab][AEEA][AEEA][Aun]-OH; thioether N-14), the IC50 was determined as 6.5 nM.

As for `Cc1cccc(C[C@@H]2NC(=O)[C@H](CC(=O)O)NC(=O)[C@H](Cc3ccc(OCC(=O)O)cc3)NC(=O)[C@H](CN)NC(=O)CSC[C@@H](C(=O)N[C@@H](CCN)C(=O)NCCCCCCCCCCC(=O)O)NC(=O)[C@H](CCCN)NC(=O)[C@H](C(C)C)NC(=O)[C@H](CC3CCCCC3)NC(=O)[C@H](CCN)NC(=O)[C@@H](CC(C)C)NC(=O)[C@H](CCCN)NC(=O)[C@H](CCCNC(N)=O)NC(=O)[C@H](Cc3ccc(-c4ccccc4)cc3)NC(=O)[C@H](Cc3ccc(OCC(=O)O)cc3)NC2=O)c1` [Compound 2844] ({CH2CO}-[Dap]Y(Carboxymethyl)D[Phe(3-Me)]Y(Carboxymethyl)[Bip][Cit][Orn][dL][Dab][Cha]V[Orn]C[Dab][Aun]-OH; thioether N-14), the IC50 is 25.5 nM.

In the case of `CC[C@H](C)[C@@H]1NC(=O)[C@H](Cc2ccc(-c3ccccc3)cc2)NC(=O)[C@H](C(C)C)NC(=O)[C@H](Cc2cccc(C)c2)NC(=O)[C@H](CC(=O)O)NC(=O)[C@H](Cc2ccc(OCC(=O)O)cc2)NC(=O)[C@H](CN)NC(=O)CSC[C@@H](C(=O)NCCOCCOCC(=O)N[C@@H](CCN)C(=O)NCCCCCCCCCCC(=O)O)NC(=O)[C@H](CCCN)NC(=O)[C@H](C(C)C)NC(=O)[C@H](CC2CCCCC2)NC(=O)[C@H](CCN)NC(=O)[C@@H](CC(C)C)NC(=O)[C@H](CCCN)NC1=O` [Compound 2630] ({CH2CO}-[Dap]Y(Carboxymethyl)D[Phe(3-Me)]V[Bip]I[Orn][dL][Dab][Cha]V[Orn]C[AEEA][Dab][Aun]-OH; thioether N-14), the half-inhibitory concentration (IC50) was 9.9 nM.

Regarding `Cc1cccc(C[C@@H]2NC(=O)[C@H](CC(=O)O)NC(=O)[C@H](Cc3ccc(OCC(=O)O)cc3)NC(=O)[C@H](C(C)O)NC(=O)CSC[C@@H](C(=O)NCCOCCOCC(=O)NCCCCCCCCCCC(=O)O)NC(=O)[C@H](C(C)O)NC(=O)[C@H](C(C)C)NC(=O)[C@H](CC3CCCCC3)NC(=O)[C@H](CCN)NC(=O)[C@@H](CC(C)C)NC(=O)[C@H](CCCN)NC(=O)[C@H](Cc3ccc(OCC(=O)O)cc3)NC(=O)[C@H](Cc3ccc(-c4ccccc4)cc3)NC(=O)[C@H](Cc3ccc(OCC(=O)O)cc3)NC2=O)c1` (stereo partly drawn) [Compound 3478] ({CH2CO}-[Thr(3ξ)]Y(Carboxymethyl)D[Phe(3-Me)]Y(Carboxymethyl)[Bip]Y(Carboxymethyl)[Orn][dL][Dab][Cha]V[Thr(3ξ)]C[AEEA][Aun]-OH; thioether N-14), the IC50 came to 21.1 nM.

With `CC(C)C[C@H]1NC(=O)[C@H](CCCN)NC(=O)[C@H](C(C)C)NC(=O)[C@H](Cc2ccc(-c3ccccc3)cc2)NC(=O)[C@H](C(C)C)NC(=O)[C@H](Cc2c[nH]c3ccccc23)NC(=O)[C@H](CC(=O)O)NC(=O)[C@H](Cc2ccc(OCC(=O)O)cc2)NC(=O)[C@H](CCCCNC(=N)N)NC(=O)CSC[C@@H](C(=O)NCC(=O)NCCOCCOCC(=O)N[C@@H](CCCN)C(=O)NCCCCCCCCCCC(=O)O)NC(=O)[C@H](CCCN)NC(=O)[C@H](C(C)C)NC(=O)[C@H](CC2CCCCC2)NC(=O)[C@H](CCN)NC1=O` [Compound 3198] ({CH2CO}-[hArg]Y(Carboxymethyl)DWV[Bip]V[Orn][dL][Dab][Cha]V[Orn]CG[AEEA][Orn][Aun]-OH; thioether N-14), the IC50 amounted to 4 nM.

As for `Cc1cccc(C[C@@H]2NC(=O)[C@H](CC(=O)O)NC(=O)[C@H](Cc3ccc(OCC(=O)O)cc3)NC(=O)[C@H](CN)NC(=O)CSC[C@@H](C(=O)N[C@@H](CCN)C(=O)NCCOCCOCC(=O)NCCCCCCCCCCC(=O)O)NC(=O)[C@H](CCCNC(=N)N)NC(=O)[C@H](C(C)C)NC(=O)[C@H](CC3CCCCC3)NC(=O)[C@H](CCN)NC(=O)[C@@H](CC3CCCCC3)NC(=O)[C@H](CCCN)NC(=O)[C@H](C(C)C)NC(=O)[C@H](Cc3ccc(-c4ccccc4)cc3)NC(=O)[C@H](C(C)C)NC2=O)c1` [Compound 2683] ({CH2CO}-[Dap]Y(Carboxymethyl)D[Phe(3-Me)]V[Bip]V[Orn][dCha][Dab][Cha]VRC[Dab][AEEA][Aun]-OH; thioether N-14), the IC50 turned out to be 14.9 nM.

On to `CC(=O)NCCCC[C@@H]1NC(=O)[C@H](Cc2ccc(-c3ccccc3)cc2)NC(=O)[C@H](Cc2ccc(O)cc2)NC(=O)[C@H](Cc2cccc(C)c2)NC(=O)[C@H](CC(=O)O)NC(=O)[C@H](Cc2ccc(OCC(=O)O)cc2)NC(=O)[C@H](CCN)NC(=O)CSC[C@@H](C(=O)N[C@@H](CCN)C(=O)N[C@@H](CO)C(=O)NCCCCCCCCCCCC(=O)O)NC(=O)[C@H](CCC(=O)O)NC(=O)[C@H](C(C)(C)O)NC(=O)[C@H](CC2CCCCC2)NC(=O)[C@H](CCN)NC(=O)[C@@H](CC(C)C)NC(=O)[C@H](CCCN)NC1=O` [Compound 3621] ({CH2CO}-[Dab]Y(Carboxymethyl)D[Phe(3-Me)]Y[Bip]K(Ac)[Orn][dL][Dab][Cha][Val(3-OH)]EC[Dab]S[12Ado]-OH; thioether N-14), for which the IC50 was 24.3 nM.

For the compound `Cc1cccc(C[C@@H]2NC(=O)[C@H](CC(=O)O)NC(=O)[C@H](Cc3ccc(OCC(=O)O)cc3)NC(=O)[C@H](CCN)NC(=O)CSC[C@@H](C(=O)N[C@@H](CCN)C(=O)NCCCCCCCCCCC(=O)O)NC(=O)[C@H](CO)NC(=O)[C@H](C(C)(C)O)NC(=O)[C@H](CC3CCCCC3)NC(=O)[C@H](CCN)NC(=O)[C@@H](CC(C)C)NC(=O)[C@H](CCCN)NC(=O)[C@H](Cc3ccc(C(N)=O)cc3)NC(=O)[C@H](Cc3ccc(-c4ccccc4)cc3)NC(=O)[C@H](Cc3ccc(OCC(=O)O)cc3)NC2=O)c1` [Compound 3604] ({CH2CO}-[Dab]Y(Carboxymethyl)D[Phe(3-Me)]Y(Carboxymethyl)[Bip][Phe(4-CONH2)][Orn][dL][Dab][Cha][Val(3-OH)]SC[Dab][Aun]-OH; thioether N-14), the IC50 is 6.8 nM.

On to `CC(C)C[C@H]1NC(=O)[C@H](CCCN)NC(=O)[C@H](C(C)C)NC(=O)[C@H](Cc2ccc(-c3ccccc3)cc2)NC(=O)[C@H](C(C)C)NC(=O)[C@H](Cc2c[nH]c3ccccc23)NC(=O)[C@H](CC(=O)O)NC(=O)[C@H](Cc2ccc(OCC(=O)O)cc2)NC(=O)[C@H](CN)NC(=O)CSCC(C(=O)N[C@@H](Cc2cnc[nH]2)C(=O)NCCCCCCCCCCC(=O)O)NC(=O)[C@H]([C@@H](C)O)NC(=O)[C@H](C(C)C)NC(=O)[C@H](CC2CCCCC2)NC(=O)[C@H](Cc2cnc[nH]2)NC1=O` (stereo partly drawn) [Compound 1126] ({CH2CO}-[Dap]Y(Carboxymethyl)DWV[Bip]V[Orn][dL]H[Cha]VT[ξC]H[Aun]-OH; thioether N-14), for which the IC50 was found to be 74 nM.

In the case of `Cc1cccc(C[C@@H]2NC(=O)[C@H](CC(=O)O)NC(=O)[C@H](Cc3ccc(OCC(=O)O)cc3)NC(=O)[C@H](CN)NC(=O)CSC[C@@H](C(=O)N[C@@H](CCN)C(=O)NCCOCCOCC(=O)NCCCCCCCCCCC(=O)O)NC(=O)[C@H](CCC(=O)O)NC(=O)[C@H](C(C)C)NC(=O)[C@H](Cc3ccccc3C(F)(F)F)NC(=O)[C@H](CCN)NC(=O)[C@@H](CC(C)C)NC(=O)[C@H](CCCN)NC(=O)[C@H](Cc3ccc(OCC(=O)O)cc3)NC(=O)[C@H](Cc3ccc(-c4ccccc4)cc3)NC(=O)[C@H](Cc3ccc(C(=O)O)cc3)NC2=O)c1` [Compound 1267] ({CH2CO}-[Dap]Y(Carboxymethyl)D[Phe(3-Me)][Phe(4-COOH)][Bip]Y(Carboxymethyl)[Orn][dL][Dab][Phe(2-CF3)]VEC[Dab][AEEA][Aun]-OH; thioether N-14), the 50% inhibitory concentration (IC50) came to 15.2 nM.

Take `CC(C)C[C@H]1NC(=O)[C@H](CCCN)NC(=O)[C@H](C(C)C)NC(=O)[C@H](Cc2ccc(-c3ccccc3)cc2)NC(=O)[C@H](C(C)C)NC(=O)[C@H](Cc2ccc(N)cc2)NC(=O)[C@H](CC(=O)O)NC(=O)[C@H](Cc2ccc(OCC(=O)O)cc2)NC(=O)[C@H](CN)NC(=O)CSC[C@@H](C(=O)N[C@@H](CCN)C(=O)NCCCCCCCCCCC(=O)O)NC(=O)[C@H](CCCCN)NC(=O)[C@H](C(C)C)NC(=O)[C@H](CC2CCCCC2)NC(=O)[C@H](CCN)NC1=O` [Compound 2028] ({CH2CO}-[Dap]Y(Carboxymethyl)D[Phe(4-NH2)]V[Bip]V[Orn][dL][Dab][Cha]VKC[Dab][Aun]-OH; thioether N-14): the IC50 was determined as 13.7 nM.

As to `Cc1cccc(C[C@@H]2NC(=O)[C@H](CC(=O)O)NC(=O)[C@H](Cc3ccc(OCC(=O)O)cc3)NC(=O)[C@H](C(C)O)NC(=O)CSC[C@@H](C(=O)N[C@H](CC(N)=O)C(=O)NCCCCCCCCCCC(=O)O)NC(=O)[C@H](CCN)NC(=O)[C@H](C(C)C)NC(=O)[C@H](CC3CCCCC3)NC(=O)[C@H](CCN)NC(=O)[C@@H](CC(C)C)NC(=O)[C@H](CCCN)NC(=O)[C@H](Cc3ccc(OCC(=O)O)cc3)NC(=O)[C@H](Cc3ccc(-c4ccccc4)cc3)NC(=O)[C@H](Cc3ccc(OCC(=O)O)cc3)NC2=O)c1` (stereo partly drawn) [Compound 3497] ({CH2CO}-[Thr(3ξ)]Y(Carboxymethyl)D[Phe(3-Me)]Y(Carboxymethyl)[Bip]Y(Carboxymethyl)[Orn][dL][Dab][Cha]V[Dab]C[dN][Aun]-OH; thioether N-14), the half-maximal inhibitory concentration (IC50) is 3.6 nM.
